Where two headings read alike, the source gives them in different places.
How the values were obtained:
hNAMPT protein = hNAMPT protein (Homo sapiens (Human), UniProt P43490); experiment: NAMPT enzyme assay (TR-FRET/HTRF, BodiPY ligand, anti 6His-Tb); assay type: binding; details: for IC50: read-out: IC50; for inhibition at 1 µM: read-out: Percent Inhibition
Description: As discussed above, the invention provides compounds that are useful as inhibitors of the enzyme NAMPT. The NAMPT inhibition of a compound of the invention can be measured using a variety of methods known in the art. For example, the ability of a compound of the invention to inhibit NAMPT enzyme activity can be measured using a homogeneous time resolved fluorescence (HTRF) assay using hNAMPT protein and anti 6His-Tb in buffer treated with a compound of the invention (or control e.g., DMSO) and BodiPY ligand. The TR-FRET signal can be measured using a high throughput microplate reader (e.g., Pherastar). Excitation can be carried out at 320 nm. The percent inhibition value at a single concentration of compound of the invention can be calculated relative to a control treated sample. A concentration response curve can be generated for each compound of the invention and the curve fitted to generate an IC50 value. […] Cat. No. […] To this solution is added test compounds or vehicle control (DMSO) and BodiPY ligand (structure below). The plate is shaken for 1-2 min, sealed and incubated for 1 hour at rt in the dark. The TR-FRET signal is measured using BMG Pherastar (Lanthascreen protocol on BMG Pherastar). Excitation was carried out at 320 nm, and the ratio of emission of BodiPY (520 nm) to terbium (486 nm) was determined. Concentration response curves are generated by calculating the excitation increase in test compound-treated samples relative to DMSO-treated controls. For the assay method described above, test compound percent inhibition values at a single concentration are calculated relative to control (DMSO) treated samples. Compound concentration response curves are fitted to generate IC50 values from those curves. One skilled in the art will appreciate that these values generated either as percentage inhibition at a single concentration or IC50 values are subject to experimental variation.

PC3 cells = experiment: PC3 growth inhibition (Cell-titer glo, 72 hours); assay type: cell-based; details: Homo sapiens, PC-3, PC3 cells, 72 hours, Cell-titer glo, read-out: Percent Inhibition (PC3 growth inhibition); for inhibition at 1 µM: compound concentration 1 μM; for inhibition at 1.667 µM: compound concentration 1.667 μM
Experimental: The ability of a compound of the invention to inhibit the growth of cells can be measured using a variety of methods known in the art. For example, the ability of a compound of the invention to inhibit the growth of PC3 cells can be measured. PC3 cells can be plated and incubated overnight under CO2. For each measurement, a compound of the invention (or vehicle e.g., DMSO) can be diluted with AIM serum free medium and added to the cell plate. The cell plate can then be incubated for 72 h under CO2. Cell-titer glo solution can be added and the plates can be incubated protected from light and the amount of luminescences can be measured. Concentration response curves can be generated by calculating the luminescence increase in test compound treated samples relative to DMSO-treated controls. Percentage remaining viability values at a single concentration can be measured. Growth inhibition (GI50) or cell viability (LD50) values can be determined from those curves.
Compounds of the invention were assayed to measure PC3 growth inhibition at a concentration of 1 μM or 1.667 μM (Table 3). To measure PC3 growth inhibition, PC3 cells that were maintained in PRMI1640 growth medium (Life Technologies; Cat. No. 11875) at 37° C. under 5% CO2 are trypsinized and diluted at a density of 8×10^4 cells/ml, 25 ul per well of cells and plated in 384-well black tissue culture plate. The cells are incubated overnight at 37° C. under 5% CO2. For each measurement, a test compounds or vehicle control (DMSO) are diluted with AIM serum free medium and added to the cell plate. Incubate for 72 hours at 37° C. under 5% CO2. 25 μl Cell-titer glo solution (Promega; Cat. No. G8462) is added and the cell plates are incubated for 10 minutes protected from light. The luminescence is measured. Concentration response curves are generated by calculating the luminescence increase in test compound-treated samples relative to DMSO-treated controls. Percentage remaining viability values at a single concentration, growth inhibition (GI50) or cell viability (LD50) values are determined from those curves. One skilled in the art will appreciate that these values are subject to experimental variation.

[1] = NAMPT inhibition at compound concentration 1 μM
[2] = NAMPT inhibition, IC50 range class

Chain of hNAMPT protein (P43490 whole entry): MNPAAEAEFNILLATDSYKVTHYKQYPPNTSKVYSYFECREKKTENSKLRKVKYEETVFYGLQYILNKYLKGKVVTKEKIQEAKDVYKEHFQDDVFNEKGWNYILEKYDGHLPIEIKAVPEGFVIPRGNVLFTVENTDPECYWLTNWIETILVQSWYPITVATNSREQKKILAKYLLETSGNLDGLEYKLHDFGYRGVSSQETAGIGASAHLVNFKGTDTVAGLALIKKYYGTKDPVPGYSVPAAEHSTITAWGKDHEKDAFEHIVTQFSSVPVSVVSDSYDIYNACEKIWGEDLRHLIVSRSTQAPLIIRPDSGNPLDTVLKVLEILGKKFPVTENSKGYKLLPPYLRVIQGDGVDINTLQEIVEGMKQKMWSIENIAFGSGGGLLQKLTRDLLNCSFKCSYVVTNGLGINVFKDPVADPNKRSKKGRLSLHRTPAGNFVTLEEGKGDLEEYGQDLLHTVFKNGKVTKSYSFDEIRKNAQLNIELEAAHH

O=C(NCc1ccccn1)c1ccc2nc(-c3ccccc3)c(-c3ccccc3)nc2c1 [Compound I-76, 2,3-diphenyl-N-(pyridin-2-ylmethyl)quinoxaline-6-carboxamide]
IC50 (hNAMPT protein; NAMPT IC50 range class): 2 to 10 µM | inhibition at 1 µM (hNAMPT protein; compound concentration 1 μM): 29% | inhibition at 1 µM (PC3 cells): 92%

O=C(c1ccc2nc(-c3ccc(F)cc3)c(-c3ccc(F)cc3)nc2c1)N1CCCC1Cc1cccnc1 (stereo not shown) [Compound I-246, [2,3-bis(4-fluorophenyl)quinoxalin-6-yl][2-(pyridin-3-ylmethyl)pyrrolidin-1-yl]methanone]
IC50 (hNAMPT protein; NAMPT IC50 range class): 2 to 10 µM | inhibition at 1 µM (hNAMPT protein; compound concentration 1 μM): 30%

CS(=O)(=O)C1CCN(c2nc3ccc(C(=O)NCCCn4ccnc4)cc3nc2-c2ccccc2)C1 (stereo not shown) [Compound I-150, N-[3-(1H-imidazo-1-yl)propyl]-2-[3-(methylsulfonyl)pyrrolidin-1-yl]-3-phenylquinoxaline-6-carboxamide]
IC50 (hNAMPT protein; NAMPT IC50 range class): 0.1 to 0.5 µM | inhibition at 1 µM (hNAMPT protein; compound concentration 1 μM): 75% | inhibition at 1 µM (PC3 cells): -7%

O=C(NCCCc1ncc[nH]1)c1ccc2nc(O[C@H]3CCOC3)c(-c3ccc(Cl)cc3)nc2c1 [Compound I-360, 3-(4-chlorophenyl)-N-[3-(1H-imidazol-2-yl)propyl]-2-[(3S)-tetrahydrofuran-3-yloxy]quinoxaline-6-carboxamide]
IC50 (hNAMPT protein; NAMPT IC50 range class): < 0.1 µM | inhibition at 1 µM (hNAMPT protein; compound concentration 1 μM): > 99% | inhibition at 1.667 µM (PC3 cells): 2%

CC(C)(C)OC(=O)NC1CCN(C2CCN(c3nc4ccc(C(=O)NCCCn5ccnc5)cc4nc3-c3ccccc3)CC2)CC1 [Compound I-74, tert-Butyl [1′-(6-{[3-(1H-imidazol-1-yl)propyl]carbamoyl}-3-phenylquinoxalin-2-yl)-1,4′-bipiperidin-4-yl]carbamate]
IC50 (hNAMPT protein; NAMPT IC50 range class): < 0.1 µM | inhibition at 1 µM (hNAMPT protein; compound concentration 1 μM): 100% | inhibition at 1 µM (PC3 cells): -2%

O=C(NCCCc1ncc[nH]1)c1ccc2nc(-n3ccc4cnccc43)c(-c3ccc(F)cc3)nc2c1 [Compound I-389, 3-(4-fluorophenyl)-N-[3-(1H-imidazol-2-yl)propyl]-2-(1H-pyrrolo[3,2-c]pyridin-1-yl)quinoxaline-6-carboxamide]
IC50 (hNAMPT protein; NAMPT IC50 range class): < 0.1 µM | inhibition at 1 µM (hNAMPT protein; compound concentration 1 μM): 93% | inhibition at 1.667 µM (PC3 cells): 2%

COC1CN(c2nc3ccc(C(=O)NCCCc4ncc[nH]4)cc3nc2-c2ccc(F)cc2)C1 [Compound I-172, 3-(4-fluorophenyl)-N-[3-(1H-imidazol-2-yl)propyl]-2-(3-methoxyazetidin-1-yl)quinoxaline-6-carboxamide]
IC50 (hNAMPT protein; NAMPT IC50 range class): < 0.1 µM | inhibition at 1 µM (hNAMPT protein; compound concentration 1 μM): > 99% | inhibition at 1.667 µM (PC3 cells): 2%

CN1CCCC1CCOc1nc2ccc(C(=O)NCCCc3ncc[nH]3)cc2nc1-c1ccc(F)cc1 (stereo not shown) [Compound I-505, 3-(4-fluorophenyl)-N-[3-(1H-imidazol-2-yl)propyl]-2-[2-(1-methylpyrrolidin-2-yl)ethoxy]quinoxaline-6-carboxamide]
inhibition at 1 µM (hNAMPT protein; [1]): > 99% | IC50 (hNAMPT protein; [2]): < 0.1 µM | inhibition at 1.667 µM (PC3 cells): 3%

O=C(NCCCc1cnccn1)c1ccc2nc(N3CCCCC3)c(-c3ccc(F)cc3)nc2c1 [Compound I-441, 3-(4-fluorophenyl)-2-(piperidin-1-yl)-N-[3-(pyrazin-2-yl)propyl]quinoxaline-6-carboxamide]
inhibition at 1 µM (hNAMPT protein; [1]): 50% | IC50 (hNAMPT protein; [2]): 0.5 to 1 µM | inhibition at 1.667 µM (PC3 cells): > 99%

O=C(NCCc1c[nH]c2ccccc12)c1ccc2nc(-c3ccc(F)cc3)c(-c3ccc(F)cc3)nc2c1 [Compound I-293, 2,3-bis(4-fluorophenyl)-N-[2-(1H-indol-3-yl)ethyl]quinoxaline-6-carboxamide]
IC50 (hNAMPT protein; NAMPT IC50 range class): 2 to 10 µM | inhibition at 1 µM (hNAMPT protein; compound concentration 1 μM): 26%

COc1cccc(-c2nc3cc(C(=O)NCCCc4ncc[nH]4)ccc3nc2-c2ccc(F)cc2)n1 [Compound I-495, 2-(4-fluorophenyl)-N-[3-(1H-imidazol-2-yl)propyl]-3-(6-methoxypyridin-2-yl)quinoxaline-6-carboxamide]
inhibition at 1 µM (hNAMPT protein; [1]): 96% | IC50 (hNAMPT protein; [2]): < 0.1 µM

O=C(c1ccc2nc(-c3ccc(F)cc3)c(-c3ccc(F)cc3)nc2c1)N1CCC(c2ccncc2)C1 (stereo not shown) [Compound I-98, [2,3-bis(4-fluorophenyl)quinoxalin-6-yl][3-(pyridin-4-yl)pyrrolidin-1-yl]methanone]
IC50 (hNAMPT protein; NAMPT IC50 range class): 1 to 2 µM | inhibition at 1 µM (hNAMPT protein; compound concentration 1 μM): 41%

O=C(c1ccc2nc(-c3ccc(F)cc3)c(-c3ccc(F)cc3)nc2c1)N1CC(c2ccccn2)C1 [Compound I-110, [2,3-bis(4-fluorophenyl)quinoxalin-6-yl][3-(pyridin-2-yl)azetidin-1-yl]methanone]
IC50 (hNAMPT protein; NAMPT IC50 range class): 0.5 to 1 µM | inhibition at 1 µM (hNAMPT protein; compound concentration 1 μM): 66%

O=C(c1ccc2nc(-c3ccc(F)cc3)c(-c3ccc(F)cc3)nc2c1)N1CCC(c2ccncc2)CC1 [Compound I-186, [2,3-bis(4-fluorophenyl)quinoxalin-6-yl][4-(pyridin-4-yl)piperidin-1-yl]methanone]
IC50 (hNAMPT protein; NAMPT IC50 range class): 2 to 10 µM | inhibition at 1 µM (hNAMPT protein; compound concentration 1 μM): 19%

O=C(c1ccc2nc(-c3ccc(F)cc3)c(-c3ccc(F)cc3)nc2c1)N1CC(n2cccn2)C1 [Compound I-249, [2,3-bis(4-fluorophenyl)quinoxalin-6-yl][3-(1H-pyrazol-1-yl)azetidin-1-yl]methanone]
IC50 (hNAMPT protein; NAMPT IC50 range class): 1 to 2 µM | inhibition at 1 µM (hNAMPT protein; compound concentration 1 μM): 45%

O=C(NCCc1ncc[nH]1)c1ccc2nc(N3CCC(N4CCOCC4)CC3)c(-c3ccccc3)nc2c1 [Compound I-71, N-[2-(1H-imidazol-2-yl)ethyl]-2-[4-(morpholin-4-yl)piperidin-1-yl]-3-phenylquinoxaline-6-carboxamide]
IC50 (hNAMPT protein; NAMPT IC50 range class): 0.1 to 0.5 µM | inhibition at 1 µM (hNAMPT protein; compound concentration 1 μM): 81%

O=C(c1ccc2nc(-c3ccc(F)cc3)c(-c3ccc(F)cc3)nc2c1)N1CCC(c2ncccn2)C1 (stereo not shown) [Compound I-294, [2,3-bis(4-fluorophenyl)quinoxalin-6-yl][3-(pyrimidin-2-yl)pyrrolidin-1-yl]methanone]
IC50 (hNAMPT protein; NAMPT IC50 range class): 2 to 10 µM | inhibition at 1 µM (hNAMPT protein; compound concentration 1 μM): 22%

Cc1ccc(CCCNC(=O)c2ccc3nc(N4CCOCC4)c(-c4ccc(F)cc4)nc3c2)cn1 [Compound I-21, 3-(4-Fluorophenyl)-N-[3-(6-methylpyridin-3-yl)propyl]-2-(morpholin-4-yl)quinoxaline-6-carboxamide]
IC50 (hNAMPT protein; NAMPT IC50 range class): 0.5 to 1 µM | inhibition at 1 µM (hNAMPT protein): 50%

Cc1ccc(CCCNC(=O)c2ccc3nc(N4CCCCC4)c(-c4ccc(F)cc4)nc3c2)cn1 [Compound I-185, 3-(4-fluorophenyl)-N-[3-(6-methylpyridin-3-yl)propyl]-2-(piperidin-1-yl)quinoxaline-6-carboxamide]
IC50 (hNAMPT protein; NAMPT IC50 range class): 0.5 to 1 µM | inhibition at 1 µM (hNAMPT protein; compound concentration 1 μM): 57%

O=C(c1ccc2nc(-c3ccc(F)cc3)c(-c3ccc(F)cc3)nc2c1)N1CCC(c2cnccn2)C1 (stereo not shown) [Compound I-40, [2,3-bis(4-fluorophenyl)quinoxalin-6-yl][3-(pyrazin-2-yl)pyrrolidin-1-yl]methanone]
IC50 (hNAMPT protein; NAMPT IC50 range class): 2 to 10 µM | inhibition at 1 µM (hNAMPT protein; compound concentration 1 μM): 33%

O=C(NCCCn1ccnc1)c1ccc2nc(-c3ccccc3Cl)c(-c3ccccc3Cl)nc2c1 [Compound I-260, 2,3-bis(2-chlorophenyl)-N-[3-(1H-imidazol-1-yl)propyl]quinoxaline-6-carboxamide]
IC50 (hNAMPT protein; NAMPT IC50 range class): 2 to 10 µM | inhibition at 1 µM (hNAMPT protein; compound concentration 1 μM): 19%

O=C(c1ccc2nc(-c3ccc(F)cc3)c(-c3ccc(F)cc3)nc2c1)N1CCc2cnccc2C1 [Compound I-160, [2,3-bis(4-fluorophenyl)quinoxalin-6-yl](3,4-dihydro-2,6-naphthyridin-2(1H)-yl)methanone]
IC50 (hNAMPT protein; NAMPT IC50 range class): 2 to 10 µM | inhibition at 1 µM (hNAMPT protein; compound concentration 1 μM): 45%
